pEC50: −log10 of the molar value. Each block holds one molecule with its values, some of them ahead of it.
Legend:
[1] = system: HIVIIIB; assay: Antiviral Activity: anti-HIV activity in MT4 cells infected with HIVIIIB (MTT); format: cell-based; conditions: Human immunodeficiency virus 1, 120 h, MOI 0.003, 5 days, n=four duplicate determinations
Protocol: (§1) The anti-HIV activity of the compound of the invention was determined in MF4 cells according to the following procedure: MT4 cells were infected with cell-free supernatant of HIVIIIB (previously frozen with known 50% tissue culture infectious dose (TCID50) at 0.003 multiplicity of infection (MOI)) for one hour. After one hour infection, cells were washed twice to remove residual viruses, resuspended in culture media and seeded into 96-well tissue culture plates at 1×10^4 cells per well with various half-log dilutions of compounds. Uninfected cells were included a toxicity and cell controls. RPMI 1640 media (GIBCO) with 10% fetal bovine serum was used as culture media. Various concentrations (50%, 25% and 12.5%) of human serum (SIGMA) were added to culture media resulting in final concentrations of 60%, 35% and 22.5% total serum. All assay plates were incubated in a 37° C. incubator for 5 days. The compound 3-[4,5-dimethylthiozol-2-yl]-2,5-diphenyltetrazolium bromide (MTT, SIGMA, 5 mg .mL stock in PBS) was then added to all wells at 25 μL per well and incubated for 4 hours. SDS (20%) with 0.02N HCl in water was added at 50 μL per well to lyse cells. Plates were incubated overnight for complete cell lysis and then read on a microtiter plate reader at 570/650 nm wavelengths to determine cell optical density (O.D.). Raw data was analysed for percent inhibition by the following formula: [formula]
The 50% effective concentration (EC50) was calculated by the median effect equation (Chou, 1975, Proc. Int. Cong. Pharmacol. 6th p. 619) to determine the efficacy of compound. The 50% cytotoxicity concentration (CTC50) was calculated using uninfected MT4 cells
Under these conditions, the data of Table 2 was obtained (n=four duplicate determinations).

[2] = biological target: HIV-1 protease (Human immunodeficiency virus type 1 group M subtype B, UniProt P04585); assay: Fluorogenic Assay for Screening Inhibitors of HIV Protease; conditions: pH 4.5
[3] = Cytotoxicity in uninfected MT4 cells (MTT); format: cell-based; conditions: human, 5 days, n=four duplicate determinations, read-out: CTC50 (50% cytotoxicity concentration)
Protocol: as §1, with “RPMI 1640 media (GIBCO) with 10% fetal bovine serum was used as culture media. Various concentrations (50%, 25% and 12.5%) of human serum (SIGMA) were added to culture media resulting in final concentrations of 60%, 35% and 22.5% total serum.” left out, “The compound 3-[4,5-dimethylthiozol-2-yl]-2,5-diphenyltetrazolium bromide (MTT, SIGMA, 5 mg .mL stock in PBS) was then added to all wells at 25 μL per well and incubated for 4 hours.” left out
The 50% cytotoxicity concentration (CTC50) was calculated using uninfected MT4 cells

Compound: Cc1cccc(C)c1OCC(=O)N[C@@H](Cc1ccccc1)[C@@H](O)C[C@H](Cc1ccccc1)NC(=O)OC1CCSC1 (mixture of isomers) [Example 30, (2S,3S,5S)-2-(2,6-Dimethylphenoxyacetyl)amino-5-(3(R,S)-tetrahydrothienyloxycarbonyl)amino-1,6-diphenyl-3-hydroxyhexane]
- pEC50 [1]: 6.00
- inhibition at 0.0005 µM [2]: 52%
- CC50 at 120 h [3]: 13500 nM

Compound: Cc1cccc(C)c1OCC(=O)N[C@@H](Cc1ccccc1)[C@@H](O)C[C@H](Cc1ccccc1)NC(=O)OC1CCCSC1 (mixture of isomers) [Example 31, (2S,3S,5S)-2-(2,6-Dimethylphenoxyacetyl)amino-5-(3(R,S)-tetrahydrothiopyranyloxycarbonyl)amino-1,6-diphenyl-3-hydroxyhexane]
- pEC50 [1]: 5.96
- inhibition at 0.0005 µM [2]: 52%
- CC50 at 120 h [3]: 53300 nM

Compound: Cc1cc(N)cc(C)c1OCC(=O)N[C@@H](Cc1ccccc1)C[C@H](O)[C@H](Cc1ccccc1)NC(=O)O[C@@H]1CO[C@@H]2OCC[C@@H]21 [Example 2, (2S,3S,5S)-5-(2,6-Dimethyl-4-amino-phenoxyacetyl)amino-2-((3S,3aR,6aS)-bis-tetrahydrofuran-3-yl-oxycarbonyl)amino-1,6-diphenyl-3-hydroxyhexane]
- pEC50 [1]: 6.77
- inhibition at 0.0005 µM [2]: 60%
- CC50 at 120 h [3]: 90000 nM

Compound: Cc1ncnc(C)c1OCC(=O)N[C@@H](Cc1ccccc1)C[C@H](O)[C@H](Cc1ccccc1)NC(=O)O[C@H]1CO[C@H]2OCC[C@H]21 [Example 8, (2S,3S,5S)-5-(4,6-Dimethyl-pyrimidinyl-5-oxyacetyl)amino-2-((3R,3aS,6aR)-bis-tetrahydrofuran-3-yl-oxycarbonyl)amino-1,6-diphenyl-3-hydroxyhexane]
- pEC50 [1]: 6.09
- inhibition at 0.0005 µM [2]: 56%
- CC50 at 120 h [3]: > 100000 nM

Compound: Cc1cccc(C)c1NCC(=O)N[C@@H](Cc1ccccc1)[C@@H](O)C[C@H](Cc1ccccc1)NC(=O)O[C@H]1CO[C@H]2OCC[C@H]21 [Example 9, (2S,3S,5S)-5-(N-(2,6-Dimethyl-phenyl)aminoacetyl)amino-2-((3R,3aS,6aR)-bis-tetrahydrofuran-3-yl-oxycarbonyl)amino-1,6-diphenyl-3-hydroxyhexane]
- pEC50 [1]: 6.60
- inhibition at 0.0005 µM [2]: 69%
- CC50 at 120 h [3]: 56000 nM

Compound: Cc1cc(C)c(OCC(=O)N[C@@H](Cc2ccccc2)C[C@H](O)[C@H](Cc2ccccc2)NC(=O)O[C@H]2CO[C@H]3OCC[C@H]32)c(C)c1 [Example 11, (2S,3S,5S)-5-(2,4,6-Trimethyl-phenoxyacetyl)amino-2-((3R,3aS,6aR)-bis-tetrahydrofuran-3-yl-oxycarbonyl)amino-1,6-diphenyl-3-hydroxyhexane]
- pEC50 [1]: 6.69
- inhibition at 0.0005 µM [2]: 82%
- CC50 at 120 h [3]: 48000 nM

Compound: COc1cccc(C)c1OCC(=O)N[C@@H](Cc1ccccc1)C[C@H](O)[C@H](Cc1ccccc1)NC(=O)O[C@H]1CO[C@H]2OCC[C@H]21 [Example 12, (2S,3S,5S)-5-(2-Methoxy-6-methylphenoxyacetyl)amino-2-((3R,3aS,6aR)-bis-tetrahydrofuran-3-yl-oxycarbonyl)amino-1,6-diphenyl-3-hydroxyhexane]
- pEC50 [1]: 6.45
- inhibition at 0.0005 µM [2]: 74%
- CC50 at 120 h [3]: > 32000 nM

Compound: Cc1cccc(C)c1N(C)CC(=O)N[C@@H](Cc1ccccc1)C[C@H](O)[C@H](Cc1ccccc1)NC(=O)O[C@H]1CO[C@H]2OCC[C@H]21 [Example 13, (2S,3S,5S)-5-(N-(2,6-Dimethyl-phenyl)-N-methyl-aminoacetyl)amino-2-((3R,3aS,6aR)-bis-tetrahydrofuran-3-yl-oxycarbonyl)amino-1,6-diphenyl-3-hydroxyhexane]
- pEC50 [1]: 5.54
- inhibition at 0.0024 µM [2]: 50%
- CC50 at 120 h [3]: 18000 nM

Compound: Cc1cc(F)cc(C)c1OCC(=O)N[C@@H](Cc1ccccc1)C[C@H](O)[C@H](Cc1ccccc1)NC(=O)O[C@H]1CO[C@H]2OCC[C@H]21 [Example 14, (2S,3S,5S)-5-(2,6-Dimethyl-4-fluoro-phenoxyacetyl)amino-2-((3R,3aS,6aR)-bis-tetrahydrofuran-3-yl-oxycarbonyl)amino-1,6-diphenyl-3-hydroxyhexane]
- pEC50 [1]: 6.57
- inhibition at 0.0005 µM [2]: 69%
- CC50 at 120 h [3]: 64000 nM

Compound: Cc1cccc(C)c1OCC(=O)N[C@@H](Cc1ccccc1)[C@@H](O)C[C@H](Cc1ccccc1)NC(=O)OC1CCSC1C(C)C (stereo partly drawn) [Example 27, (2S,3S,5S)-2-(2,6-Dimethylphenoxyacetyl)amino-5-(3(R,S)-2(R,S)-isopropyl-tetrahydrothienyloxycarbonyl)amino-1,6-diphenyl-3-hydroxyhexane]
- inhibition at 0.0013 µM [2]: 50%

Compound: O=C(N[C@@H](Cc1ccccc1)C[C@H](O)[C@H](Cc1ccccc1)NC(=O)c1cccc(O)c1)O[C@H]1CO[C@H]2OCC[C@H]21 [Example 66, (2S,3S,5S)-2-(3-Hydroxy-benzoyl)amino-5-((3R,3aS,6aR)-bis-tetrahydrofuran-3-yl-oxycarbonyl)amino-1,6-diphenyl-3-hydroxyhexane]
- pEC50 [1]: 6.19
- inhibition at 0.0005 µM [2]: 68%

Further molecules by rising pEC50 [1], results first:

- pEC50 [1]: 6.80
- inhibition at 0.0005 µM [2]: 43%
Compound: Cc1cc(N(C)C)cc(C)c1OCC(=O)N[C@@H](Cc1ccccc1)C[C@H](O)[C@H](Cc1ccccc1)NC(=O)O[C@H]1CO[C@H]2OCC[C@H]21 [Example 15, 5-(2,6-Dimethyl-4-N, N-dimethylamino-phenoxyacetyl)amino-2-((3R,3aS,6aR)-bis-tetrahydrofuran-3-yl-oxycarbonyl)amino-1,6-diphenyl-3-hydroxyhexane]
- CC50 at 120 h [3]: 46000 nM

- pEC50 [1]: 7.21
- inhibition at 0.0005 µM [2]: 91%
Compound: Cc1cccc(C)c1OCC(=O)N[C@@H](Cc1ccccc1)[C@@H](O)C[C@H](Cc1ccccc1)NC(=O)O[C@H]1CO[C@H]2OCC[C@H]21 [Example 6, (2S,3S,5S)-2-(2,6-Dimethyl-phenoxyacetyl)amino-5-((3R,3aS,6aR)-bis-tetrahydrofuran-3-yl-oxycarbonyl)amino-1,6-diphenyl-3-hydroxyhexane]
- CC50 at 120 h [3]: > 100000 nM

- pEC50 [1]: 7.39
- inhibition at 0.0005 µM [2]: 87%
Compound: Cc1cccc(C)c1OCC(=O)N[C@@H](Cc1ccccc1)C[C@H](O)[C@H](Cc1ccccc1)NC(=O)O[C@H]1CO[C@H]2OCC[C@H]21 [Example 5, (2S,3S,5S)-5-(2,6-Dimethyl-phenoxyacetyl)amino-2-((3R,3aS,6aR)-bis-tetrahydrofuran-3-yl-oxycarbonyl)amino-1,6-diphenyl-3-hydroxyhexane]
- CC50 at 120 h [3]: > 100000 nM

- pEC50 [1]: 7.43
- inhibition at 0.0005 µM [2]: 88%
Compound: Cc1cccc(CO)c1OCC(=O)N[C@@H](Cc1ccccc1)C[C@H](O)[C@H](Cc1ccccc1)NC(=O)O[C@H]1CO[C@H]2OCC[C@H]21 [Example 7, (2S,3S,5S)-5-(2-Hydroxymethyl-6-methyl-phenoxyacetyl)amino-2-((3R,3aS,6aR)-bis-tetrahydrofuran-3-yl-oxycarbonyl)amino-1,6-diphenyl-3-hydroxyhexane]
- CC50 at 120 h [3]: 82000 nM

- pEC50 [1]: 7.49
- inhibition at 0.0005 µM [2]: 74%
Compound: Cc1cc(C)c(OCC(=O)N[C@@H](Cc2ccccc2)C[C@H](O)[C@H](Cc2ccccc2)NC(=O)O[C@H]2CO[C@H]3OCC[C@H]32)c(C)c1N [Example 4, (2S,3S,5S)-5-(2,4,6-Trimethyl-3-amino-phenoxyacetyl)amino-2-((3R,3aS,6aR)-bis-tetrahydrofuran-3-yl-oxycarbonyl)amino-1,6-diphenyl-3-hydroxyhexane]
- CC50 at 120 h [3]: 41000 nM

- pEC50 [1]: 8.05
- inhibition at 0.0005 µM [2]: 78%
Compound: Cc1cc(N)cc(C)c1OCC(=O)N[C@@H](Cc1ccccc1)C[C@H](O)[C@H](Cc1ccccc1)NC(=O)O[C@H]1CO[C@H]2OCC[C@H]21 [Example 1, (2S,3S,5S)-5-(2,6-Dimethyl-4-amino-phenoxyacetyl)amino-2-((3R,3aS,6aR)-bis-tetrahydrofuran-3-yl-oxycarbonyl)amino-1,6-diphenyl-3-hydroxyhexane]
- CC50 at 120 h [3]: 95000 nM

- pEC50 [1]: 8.10
- inhibition at 0.0005 µM [2]: 91%
Compound: Cc1cc(N)cc(C)c1OCC(=O)N[C@@H](Cc1ccccc1)[C@@H](O)C[C@H](Cc1ccccc1)NC(=O)O[C@H]1CO[C@H]2OCC[C@H]21 [Example 3, (2S,3S,5S)-2-(2,6-Dimethyl-4-amino-phenoxyacetyl)amino-5-((3R,3aS,6aR)-bis-tetrahydrofuran-3-yl-oxycarbonyl)amino-1,6-diphenyl-3-hydroxyhexane]
- CC50 at 120 h [3]: 61000 nM

— patent US5905068A, “Retroviral protease inhibiting compounds” (Abbott Laboratories, priority 1996, dated 1999)
